These results are taken from US11478470B2, “Combination product of Bcl-2 inhibitor or Bcl-2/Bcl-xL dual inhibitor and BTK inhibitor and use thereof in the prevention and/or treatment of diseases” (ASCENTAGE PHARMA (SUZHOU) CO., LTD., priority 2018, dated 2022).

As usually defined, the IC50 is the concentration at which inhibition is half-maximal.

Assay [1] relates to human DOHH2 (FL) xenograft tumor. The assay is classed as in vivo. The note with it: Cpd. 6 100 mg/kg, Ibrutinib 25 mg/kg. Here is the method:
All animal experiments were strictly in accordance with the laboratory animal use and management practices of GenePharma Co., Ltd. and Ascentage Pharma Group Co., Ltd. The calculation of relevant parameters referred to the Chinese CFDA “Guidelines for Non-Clinical Research Techniques of Cytotoxic Antitumor Drugs”.
(§1) Animal body weight and tumor size were measured twice a week during the experiment. Tumor growth was observed periodically, and the animals were randomly divided into groups according to tumor size and mouse body weight when the tumors grew to an average volume of 100-200 mm^3. The conditions and death of the animals were observed every day. Routine monitoring included the effects of tumor growth and treatment on normal animal behaviors, including activity, feeding and drinking situations, weight gain or loss, eyes, coat and other abnormalities in the experimental animals. The deaths and clinical symptoms observed during the experiment were recorded in the raw data. The entire operations of administration, measurement of mouse body weight and tumor volume were performed in a clean bench. Plasma and tumor tissues were collected, weighed and photographed after the end of the last administration according to the experimental protocol. Plasma and tumor samples were frozen and stored at −80° C.
Tumor volume (TV) was calculated as: TV=a×b^2/2, in which a and b represented the length and width of the tumor as measured, respectively. The relative tumor volume (RTV) was calculated as: RTV=Vt/V1, in which V1 was the tumor volume at the time of grouping and administration, and Vt was the tumor volume measured on a day after administration. […] Change of body weight %=(measured body weight−body weight at the time of grouping)/body weight at the time of grouping×100%.
If the synergy factor was >1, there was a synergistic effect; if the synergistic factor=1, there was an additive effect; if the synergistic factor <1, there was an antagonistic effect.

For assay [2] the test system is unchanged. The assay is classed as in vivo. The note with it: Cpd. 6 50 mg/kg, Ibrutinib 20 mg/kg. Here is the method: (§2) . All animal experiments were strictly in accordance with the laboratory animal use and management practices of GenePharma Co., Ltd. and Ascentage Pharma Group Co., Ltd. The calculation of relevant parameters referred to the Chinese CFDA “Guidelines for Non-Clinical Research Techniques of Cytotoxic Antitumor Drugs”.
as §1
(§3) Tumor volume (TV) was calculated as: TV=a×b^2/2, in which a and b represented the length and width of the tumor as measured, respectively. The relative tumor volume (RTV) was calculated as: RTV=Vt/V1, in which V1 was the tumor volume at the time of grouping and administration, and Vt was the tumor volume measured on a day after administration. The evaluation index of anti-tumor activity was the relative tumor proliferation rate T/C (%), which was calculated as: relative tumor proliferation rate T/C (%)=(TRTV/CRTV)×100%, in which TRTV was the RTV of the treatment group, CRTV was the RTV of the vehicle control group; tumor remission rate (%) was calculated as: (the number of SD (stable disease), PR (tumor partial regression) and CR (tumor complete regression) in the tumor-bearing mice after treatment)/the total number of mice in the group×100%. Change of body weight %=(measured body weight−body weight at the time of grouping)/body weight at the time of grouping×100%.
(§4) ; The synergistic analysis was performed by the following formula: synergy factor=((A/C)×(B/C))/(AB/C); A=RTV value of the group administered with A only; B=RTV value of the group administered with B only; C=RTV value of the vehicle control group; AB=RTV value of the group administered with A and B in combination (Clarke R. Issues in experimental design and endpoint analysis in the study of experimental cytotoxic agents in vivo in breast cancer and other models [J]. Breast Cancer Research & Treatment, 1997, 46(2-3): 255-278). If the synergy factor was >1, there was a synergistic effect; if the synergistic factor=1, there was an additive effect; if the synergistic factor <1, there was an antagonistic effect.

The subject of assay [3] is human OCI-LY1 (DLBCL) xenograft tumor. Type of assay: in vivo. The note with it: Cpd. 6 50 mg/kg, Ibrutinib 20 mg/kg. Here is the method: as §2, §1, §3, §4
The next assay deals with DOHH-2 cells. The experiment in a line: Flow cytometry analysis of apoptosis (Annexin V/PI), DOHH-2. The assay is classed as cell-based, human. The conditions noted are these: DOHH-2, 24 hours; 10 nM Compound 6, 100 nM ibrutinib, or the combination. Here is the method: Apoptosis was evaluated with AnnexinV/propidium iodide (PI) dyes (BD Biosciences, Cat. 556547) according to manufacturer's instructions. Briefly, cells were seeded in 24-well plates at a density 2×10^5 cells/well, and treated with Compound 6 and/or ibrutinib (Selleck) to induce apoptosis. After 24 h, cells were collected, washed twice with PBS (pH 7.4), and stained with Annexin-V and propidium iodide (PI) for 15 mins. Stained samples were analyzed using flow cytometer Attune NxT (Life technologies).
In the experiment, the combination treatment with Compound 6 and ibrutinib was evaluated for its ability of apoptosis induction on DOHH2 and OCI-LY1 cells by co-staining of Annexin-V/Propidium iodide (PI) followed by flow cytometry analysis (FIG. 7A). […] Flow cytometry analysis of apoptotic cells by Annexin V and propidium iodide (PI) co-staining in DOHH-2 and OCI-LY1 cell lines treated with 10 nM (DOHH-2) or 15 nM (OCI-LY1) Compound 6, 100 nM (DOHH-2) or 150 nM (OCI-LY1) ibrutinib, or the combination for 24 hours. Three independent experiments were conducted and the representative results are shown (7A). The percentages of Annexin V-positive, PI-positive, or double positive DOHH-2 (7B) and OCI-LY1 (7C) cells are plotted as bar charts and shown as mean±SEM (n=3) (**p<0.01, ***p<0.001).
(In general: Flow cytometry measures light scatter and fluorescence of single cells or particles in a stream.)

A further assay has as its system DOHH2 cells. The experiment in a line: CellTiter-Glo cell viability assay, DOHH2 cells (Example 11). Type of assay: cell-based. The note with it: Homo sapiens, DOHH-2, DOHH2 parental cells. Here is the method:
(§5) DOHH2 cells were cultured in RPM11640 medium containing 10% calf serum, 1% antibiotics and 5 ug/ml verapamil (calcium ion channel blocker), and ibrutinib was added at a gradually increasing concentration from 0.5 uM to 10 uM. After exposure for about three months, a ibrutinib-resistant DOHH2R cell line was obtained, also referred to as DOHH2^R-ibrutinib. After DOHH2^R-ibrutinib was stabilized, it was continued to be cultured in culture medium containing 10 uM Ibrutinib to maintain its resistance. Ibrutinib is absent only in the susceptibility test with Compound 6 or 88.
(§6) Relative light units (RLU) were determined by a microplate reader (BioTek, Synergy H1 MF, USA). […] IC50 values were calculated using GraphPad Prism. IC50 was expressed as mean±standard deviation (SD).

The subject of another assay is DOHH2^R-ibrutinib cells. The assay is described as follows: CellTiter-Glo cell viability assay, ibrutinib-resistant DOHH2R-ibrutinib cells. The note with it: Homo sapiens; ibrutinib-resistant cells, CellTiter-Glo, 24 or 72 hours; read-out: IC50 value to the DOHH2^R-ibrutinib cell line (cell viability). The assay is classed as cell-based, human. As to the method: as §5, §6
In general terms: Cellular ATP, detected with luciferase, serves as a proxy for viable cell number.

For assay [4], the system named is various hematological malignancies cell lines including those from DLBCL and FL. The experiment in a line: Anti-proliferative activity as single agent in hematological malignancies cell lines (data not shown). The assay is classed as cell-based.

For the molecule `O=C(NS(=O)(=O)c1ccc(NC[C@H]2COCCO2)c([N+](=O)[O-])c1)c1ccc(N2CCN(CC3=C(c4ccc(Cl)cc4)CC4(CCC4)CC3)CC2)cc1Oc1cnc2[nH]ccc2c1` [Compound 6, (S)-N-((4-(((1,4-dioxan-2-yl)methyl)amino)-3-nitrophenyl)sulfonyl)-2-((1H-pyrrolo[2,3-b]pyridin-5-yl)oxy)-4-(4-((6-(4-chlorophenyl)spiro[3.5]non-6-en-7-yl)methyl)piperazin-1-yl)benzamide], the “TGI (%) on day 32 after administration” value in assay [1] (TGI = 100 − T/C%) is recorded as 81%. Further, in assay [1] (day 32), the “RTV on day 32 after administration (mean ± standard error)” value is listed as 2.4 ± 0.2 and the “T/C (%) on day 32 after administration” value was determined as 19%. Further, in assay [2], the “RTV on day 35 after administration (mean ± standard error)” value came to 7.5 ± 0.7 and the “T/C (%) on day 35 after administration” value was found to be 44.40%. Moreover, in assay [3] (day 36), the “RTV on day 36 after administration (mean ± standard error)” value stood at 2.2 ± 0.4. The “T/C on day 36 after administration” value in assay [3] (day 36, given as fraction) came to 0.090. Moreover, the “RTV on day 43 after administration” value in assay [3] (day 43) was determined as 7.1 ± 0.4. In addition, in the assay with DOHH-2 cells, the “apoptosis induction (Annexin V / PI positive cells)” value is on record as “slightly enhanced apoptotic activity”. Further, the IC50 with DOHH2 cells is 0.0484 µM. In the assay with DOHH2^R-ibrutinib cells, the IC50 stood at 0.648 µM. Further, in assay [4], the “anti-proliferative activities as a single agent compared with ABT-199” value is on record as “comparable if not better than ABT-199”.
